Key:
Format in all cases: in vivo
[1] = system: barnyardgrass (Echinochloa crus-galli); experiment: Test B pre-/postemergence plant response
Method in brief: (§1)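 Steps: plant seeds in loam soil–sand mix; spray soil preemergence, and in parallel spray 2–10 cm one- to two-leaf plants postemergence; hold ~10 days in greenhouse; visually rate injury against untreated controls (0 = no effect, 100 = complete control).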

corn (Zea mays) = experiment: Test B pre-/postemergence plant response
Method in brief: as §1

[2] = system: giant foxtail (Setaria faberii); experiment: Test B pre-/postemergence plant response
Method in brief: as §1

[3] = system: large (Lg) crabgrass (Digitaria sanguinalis); experiment: Test B pre-/postemergence plant response
Method in brief: as §1

[4] = system: morningglory (Ipomoea spp.); experiment: Test B pre-/postemergence plant response
Method in brief: as §1

[5] = system: pigweed (Amaranthus retroflexus); experiment: Test B pre-/postemergence plant response
Method in brief: as §1

[6] = system: velvetleaf (Abutilon theophrasti); experiment: Test B pre-/postemergence plant response
Method in brief: as §1

[7] = system: wheat (Triticum aestivum); experiment: Test B pre-/postemergence plant response
Method in brief: as §1

[8] = system: barnyardgrass (Echinochloa crus-galli); experiment: Test C flooded paddy test plant response; details: Flood, 250 g ai/ha; scale of 0 to 100 where 0 is no effect and 100 is complete control; 13 to 15 days
Method in brief: (§2)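 Greenhouse paddy assay, 13–15 days. Treatment into 3 cm floodwater over 2-leaf plants; visual 0–100 rating against controls.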

[9] = system: ducksalad (Heteranthera limosa); experiment: Test C flooded paddy test plant response; details: Flood, 250 g ai/ha; scale of 0 to 100 where 0 is no effect and 100 is complete control; 13 to 15 days
Method in brief: as §2

rice (Oryza sativa) = experiment: Test C flooded paddy test plant response; details: Flood, 250 g ai/ha; scale of 0 to 100 where 0 is no effect and 100 is complete control; 13 to 15 days
Method in brief: as §2

[10] = system: small-flower umbrella sedge (Cyperus difformis); experiment: Test C flooded paddy test plant response; details: Flood, 250 g ai/ha; scale of 0 to 100 where 0 is no effect and 100 is complete control; 13 to 15 days
Method in brief: as §2

[11] = 125 g ai/ha, postemergence, 0 to 100 scale, 0 no effect, 100 complete control
[12] = Postemergence, 500 g ai/ha, 0 to 100 scale (0 no effect, 100 complete control)
[13] = Preemergence, 125 g ai/ha, 0 to 100 scale where 0 is no effect and 100 is complete control
[14] = Preemergence, 500 g ai/ha, 0 to 100 scale where 0 is no effect and 100 is complete control

Row | SMILES | Plant response rating, Barnyardgrass [1, 11] | Plant response rating, Barnyardgrass [1, 12] | Plant response rating, Barnyardgrass [1, 13] | Plant response rating, Barnyardgrass [1, 14] | Plant response rating, Corn (corn (Zea mays); [11]) | Plant response rating, Corn (corn (Zea mays); [12]) | Plant response rating, Corn (corn (Zea mays); [13]) | Plant response rating, Corn (corn (Zea mays); [14]) | Plant response rating, Foxtail, Giant [2, 11] | Plant response rating, Foxtail, Giant [2, 12] | Plant response rating, Foxtail, Giant [2, 13] | Plant response rating, Foxtail, Giant [2, 14] | Plant response rating, Crabgrass, Large [3, 11] | Plant response rating, Crabgrass, Large [3, 12] | Plant response rating, Crabgrass, Large [3, 13] | Plant response rating, Crabgrass, Large [3, 14] | Plant response rating, Morningglory [4, 11] | Plant response rating, Morningglory [4, 12] | Plant response rating, Morningglory [4, 13] | Plant response rating, Morningglory [4, 14] | further results
1 | FC(F)(F)c1ccc(-c2ccccc2Oc2ncc(Br)cn2)nc1 [Compound 28] | 0 | 50 | 0 | 60 | 0 | 20 | 0 | 0 | 20 | 40 | 30 | 90 | 20 | 40 | 40 | 100 | 0 | 30 | 0 | 0 | Plant response rating, Pigweed [5, 11]: 30; Plant response rating, Pigweed [5, 12]: 100; Plant response rating, Pigweed [5, 13]: 40; Plant response rating, Pigweed [5, 14]: 80; Plant response rating, Velvetleaf [6, 11]: 40; Plant response rating, Velvetleaf [6, 12]: 100; Plant response rating, Velvetleaf [6, 13]: 0; Plant response rating, Velvetleaf [6, 14]: 60; Plant response rating, Wheat [7, 11]: 0; Plant response rating, Wheat [7, 12]: 0; Plant response rating, Wheat [7, 13]: 0; Plant response rating, Wheat [7, 14]: 0; Barnyardgrass plant response rating [8]: 0; Ducksalad plant response rating [9]: 0; Rice plant response rating (rice (Oryza sativa)): 0; Sedge, Umbrella plant response rating [10]: 0
2 | Cn1nc(C(F)(F)F)cc1-c1ccccc1Oc1ncc(Cl)cn1 [Compound 29] | 0 | 0 | 0 | 0 | 0 | 0 | 0 | 0 | 0 | 0 | 0 | 10 | 0 | 10 | 10 | 30 | 0 | 0 | 0 | 0 | Plant response rating, Pigweed [5, 11]: 0; Plant response rating, Pigweed [5, 12]: 10; Plant response rating, Pigweed [5, 13]: 20; Plant response rating, Pigweed [5, 14]: 50; Plant response rating, Velvetleaf [6, 11]: 0; Plant response rating, Velvetleaf [6, 12]: 0; Plant response rating, Velvetleaf [6, 13]: 0; Plant response rating, Velvetleaf [6, 14]: 0; Plant response rating, Wheat [7, 11]: 0; Plant response rating, Wheat [7, 12]: 0; Plant response rating, Wheat [7, 13]: 0; Plant response rating, Wheat [7, 14]: 0; Barnyardgrass plant response rating [8]: 0; Ducksalad plant response rating [9]: 0; Rice plant response rating (rice (Oryza sativa)): 0; Sedge, Umbrella plant response rating [10]: 0
3 | Cn1nc(C(F)(F)F)cc1-c1ccccc1Oc1ncc(Br)cn1 [Compound 30] | 0 | 0 | 0 | 0 | 0 | 0 | 0 | 0 | 0 | 10 | 0 | 10 | 0 | 10 | 0 | 20 | 0 | 10 | 0 | 0 | Plant response rating, Pigweed [5, 11]: 0; Plant response rating, Pigweed [5, 12]: 10; Plant response rating, Pigweed [5, 13]: 0; Plant response rating, Pigweed [5, 14]: 30; Plant response rating, Velvetleaf [6, 11]: 10; Plant response rating, Velvetleaf [6, 12]: 30; Plant response rating, Velvetleaf [6, 13]: 0; Plant response rating, Velvetleaf [6, 14]: 0; Plant response rating, Wheat [7, 11]: 0; Plant response rating, Wheat [7, 12]: 0; Plant response rating, Wheat [7, 13]: 0; Plant response rating, Wheat [7, 14]: 0; Barnyardgrass plant response rating [8]: 0; Ducksalad plant response rating [9]: 0; Rice plant response rating (rice (Oryza sativa)): 0; Sedge, Umbrella plant response rating [10]: 0
4 | Clc1cnc(Oc2ccccc2-c2cc(Cl)cc(Cl)c2)nc1 [Compound 41] | 0 | 20 | 0 | 0 | 0 | 10 | 0 | 0 | 10 | 20 | 0 | 20 | 10 | 20 | 0 | 10 | 0 | 10 | 0 | 0 | Plant response rating, Pigweed [5, 11]: 40; Plant response rating, Pigweed [5, 12]: 70; Plant response rating, Pigweed [5, 13]: 0; Plant response rating, Pigweed [5, 14]: 0; Plant response rating, Velvetleaf [6, 11]: 10; Plant response rating, Velvetleaf [6, 12]: 30; Plant response rating, Velvetleaf [6, 13]: 0; Plant response rating, Velvetleaf [6, 14]: 0; Plant response rating, Wheat [7, 11]: 0; Plant response rating, Wheat [7, 12]: 0; Plant response rating, Wheat [7, 13]: 0; Plant response rating, Wheat [7, 14]: 0; Barnyardgrass plant response rating [8]: 0; Ducksalad plant response rating [9]: 0; Rice plant response rating (rice (Oryza sativa)): 0; Sedge, Umbrella plant response rating [10]: 0

Reference: patent US10131652B2, “Pyrimidinyloxy benzene derivatives as herbicides” (E. I. DU PONT DE NEMOURS AND COMPANY, priority 2014, dated 2018)
